In patent US11071731B2, “Allosteric modulators of the mu opioid receptor” (Chiromics, LLC, priority 2017, dated 2021):

Assays:
[1] = molecular target: T1, mu opioid receptor (MOR) (Homo sapiens, UniProt P35372); assay: Hit Hunter cAMP signaling assay (adenylyl cyclase inhibition), PAM mode with EC20 endomorphin-1; type: cell-based
[2] = molecular target: T1, mu opioid receptor (MOR); assay: PathHunter β-arrestin recruitment assay, PAM mode with EC20 endomorphin-1; type: cell-based; conditions: for EC50: read-out: β-arr. EC50; for allosteric activity for β-arrestin recruitment: EC20 endomorphin-1 concentration of 4.5 nM
Method in brief: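 β-Arrestin recruitment to the receptor was tracked by chemiluminescent β-galactosidase activity from complementing fragments (ED on receptor, EA on β-arrestin). Per-compound outputs were EC50 and percent maximal response.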

[3] = adenylyl cyclase inhibition, read-out: cAMP EC50
[4] = maximal response for adenylyl cyclase inhibition
[5] = maximal response for β-arrestin recruitment
[6] = cAMP EC50, adenylyl cyclase inhibition
[7] = maximal response, adenylyl cyclase inhibition
[8] = maximal response, β-arrestin recruitment

T1 sequence (P35372 whole entry): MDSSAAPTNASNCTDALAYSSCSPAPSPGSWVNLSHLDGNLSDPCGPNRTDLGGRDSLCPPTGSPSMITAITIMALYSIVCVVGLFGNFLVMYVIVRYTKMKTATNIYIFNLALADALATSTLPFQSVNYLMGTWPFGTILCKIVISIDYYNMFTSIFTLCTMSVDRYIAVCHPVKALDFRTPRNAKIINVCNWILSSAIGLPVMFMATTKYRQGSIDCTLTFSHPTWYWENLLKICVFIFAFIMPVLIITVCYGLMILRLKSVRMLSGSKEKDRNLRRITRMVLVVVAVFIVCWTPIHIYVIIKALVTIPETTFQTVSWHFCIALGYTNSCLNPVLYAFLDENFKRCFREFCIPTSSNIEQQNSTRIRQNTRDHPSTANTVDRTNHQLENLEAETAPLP

Row | SMILES | EC50 [1, 3] [µM] | cAMP Max. Resp. [1, 4] | β-arr Max. Resp. [2, 5] | EC50 ([2]; β-arrestin recruitment) [µM] | EC50 [1, 6] [µM] | cAMP Max. Resp. [1, 7] | β-arr Max. Resp. [2, 8] | allosteric activity for cAMP signaling ([1]; EC20 endomorphin-1 concentration of 0.45 nM) | allosteric activity for β-arrestin recruitment [2] | allosteric activity for β-arrestin recruitment ([2]; listed as Compound No. 216)
1 | O=S(=O)(c1ccc(Cl)cc1)N1CCCCC1c1cncc(F)c1 (racemic) [compound 82] | > 2.1 | D (D represents a maximal response of < 40%) | D (D represents a maximal response of < 40%) | > 2.1 |  |  |  |  |  | 
2 | Cc1nccc(N2CCCCC2c2ccc(F)c(Cl)c2)n1 (centres unmarked) [compound 480] |  |  |  | > 2.1 | > 2.1 | D (D represents a maximal response of < 40%) | D (D represents a maximal response of < 40%) |  |  | 
3 | Fc1ccc(C2C(F)CCCN2c2nc(Cl)ncc2F)cc1Br (centres unmarked) [compound 214] | 0.7 to 2.1 |  |  | > 2.1 |  |  |  |  |  | 
4 | Fc1ccc(C2CCCCN2c2nc(Cl)ncc2F)cc1F (centres unmarked) [compound 129] |  | E (E represents a maximal response of 40-60%) | F (F represents a maximal response of > 60%) | < 0.7 | 0.7 to 2.1 |  |  |  |  | 
5 | Fc1ccc(C2CCCCN2Cc2cc(Cl)ccn2)cc1Cl (centres unmarked) [compound 145] |  | E (E represents a maximal response of 40-60%) | F (F represents a maximal response of > 60%) | > 2.1 | 0.7 to 2.1 |  |  |  |  | 
6 | O=S(=O)(c1ccc(Cl)cc1)N1CCCC(F)C1c1ccc(F)c(Br)c1 (centres unmarked) [Compound 29] | > 2.1 |  |  | > 2.1 |  |  |  |  |  | 
7 | COc1ccc(C2CCCCN2c2nc(Cl)ncc2C)cc1Br (centres unmarked) [compound 234] |  | F (F represents a maximal response of > 60%) | F (F represents a maximal response of > 60%) | > 2.1 | > 2.1 |  |  |  |  | 
8 | Fc1cnc(Cl)nc1N1CCCCC1c1ccnc(C(F)(F)F)c1 (centres unmarked) [compound 410] |  | D (D represents a maximal response of < 40%) | D (D represents a maximal response of < 40%) | < 0.7 | < 0.7 |  |  |  |  | 
9 | CC1CCN(S(=O)(=O)c2ccc(Cl)cc2)C1c1ccc2c(c1)OCO2 (mixture of isomers) [Compound 96] | > 2.1 | D (D represents a maximal response of < 40%) | F (F represents a maximal response of > 60%) | > 2.1 |  |  |  |  |  | 
10 | Fc1cnc(Cl)nc1N1CCCCC1c1cc(C(F)(F)F)c2[nH]cnc2c1 (centres unmarked) [compound 417] |  | D (D represents a maximal response of < 40%) | D (D represents a maximal response of < 40%) | < 0.7 | < 0.7 |  |  |  |  | 
11 | FC(F)(F)c1cccc(C2CCCCN2Cc2cc(Cl)ccn2)n1 (centres unmarked) [compound 162] |  | E (E represents a maximal response of 40-60%) | F (F represents a maximal response of > 60%) | > 2.1 | > 2.1 |  |  |  |  | 
12 | OC1CCN(c2nc(Cl)ncc2F)C(c2ccc(F)c(Cl)c2)C1 (centres unmarked) [compound 293] |  | F (F represents a maximal response of > 60%) | F (F represents a maximal response of > 60%) | > 2.1 | 0.7 to 2.1 |  |  |  |  | 
13 | FC(F)(F)c1cccc(C2CCCCN2c2cccc(Cl)c2)n1 (centres unmarked) [compound 459] | > 2.1 |  |  | > 2.1 |  | D (D represents a maximal response of < 40%) | F (F represents a maximal response of > 60%) |  |  | 
14 | Cc1cc(C2C(C)CCN2S(=O)(=O)c2ccc(Cl)cc2)ccc1F (mixture of isomers) [Compound 101] | < 0.7 | D (D represents a maximal response of < 40%) | F (F represents a maximal response of > 60%) | 0.7 to 2.1 |  |  |  |  |  | 
15 | O=S(=O)(c1cccc(Cl)c1)N1C2CCC(C2)C1c1ccc(F)c(Br)c1 (centres unmarked) [Compound 180] | > 2.1 | E (E represents a maximal response of 40-60%) | F (F represents a maximal response of > 60%) | > 2.1 |  |  |  |  |  | 
16 | Fc1ccc(C(F)(F)F)cc1C1CCCCN1c1nc(Cl)ncc1F (centres unmarked) [compound 353] |  | D (D represents a maximal response of < 40%) | D (D represents a maximal response of < 40%) | < 0.7 | < 0.7 |  |  |  |  | 
17 | Fc1cc(C2C3CCC(C3)N2Cc2cc(Cl)ccc2F)cc(C(F)(F)F)c1 (centres unmarked) [compound 216] |  | D (D represents a maximal response of < 40%) | F (F represents a maximal response of > 60%) | < 0.7 | > 2.1 |  |  | silent allosteric activity | high positive allosteric activity | high allosteric modulatory capability
18 | Cc1cncc(C2CCCCN2c2nc(Cl)ncc2F)c1 (centres unmarked) [compound 330] |  | D (D represents a maximal response of < 40%) | D (D represents a maximal response of < 40%) | < 0.7 | < 0.7 |  |  |  |  | 
